Laboratory results from patent publication US20210084904A1, “SUCCINATE DEHYDROGENASE INHIBITORS AND SULFUR-CONTAINING COMPOUNDS MIXTURES AND METHODS OF USE THEREOF” (University of Georgia Research Foundation, Inc., priority 2019, published 2021).

Test system: Cercosporidium personatum
Assay: Greenhouse test: efficacy on peanut late leaf spot, foliar spray
Format: in vivo
Settings: leaves sprayed, infected peanut plants
Description: The following greenhouse test was conducted Sep. 14, 2019. Peanut plants (Arachis hypogaea) were used in the test as the crop plant. The peanut plants were infected Cercosporidium personatum.
Leaves were sprayed with inpyfluxam, chlorothalonil, benzovindiflupyr, prothioconazole, and/or sulfur at the rates disclosed in Table 1. All data was analyzed for significance.

N#Cc1c(Cl)c(Cl)c(Cl)c(C#N)c1Cl [Chlorothalonil, chlorothalonil]
% Control (application rate 24.0 ounces/acre): 27.5c %

inpyrfluxam
% Control (application rate 2.0 ounces/acre): 32.5b % | % Control (application rate 3.0 ounces/acre): 31.3bc % | % Control (application rate 4.0 ounces/acre): 30.0bc %

OC(Cc1ccccc1Cl)(Cn1nc[nH]c1=S)C1(Cl)CC1 (centres unmarked) [Prothioconazole, prothioconazole]
% Control (application rate 7.0 ounces/acre): 10.0d %
